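48-hour exposure; five concentrations; linearly interpolated endpoints. TGI denotes the concentration required for complete inhibition of growth.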
What was measured:
Assay in all cases: NCI tumour cell line growth inhibition, 48 h
[1] = test system: 786-0 renal
[2] = test system: A498 renal
[3] = test system: A549 NSCLC
[4] = test system: ACHN renal
[5] = test system: BT-549 breast
[6] = test system: CAKI-1 renal
[7] = test system: CCRF-CEM leukemia
[8] = test system: COLO 205 colon
[9] = test system: DU-145 prostate
[10] = test system: EKVX NSCLC
[11] = test system: HCC-2998 colon
[12] = test system: HCT-116 colon
[13] = test system: HCT-15 colon
[14] = test system: HL-60(TB) leukemia
[15] = test system: HOP-62 NSCLC
[16] = test system: HOP-92 NSCLC
[17] = test system: HS 578T breast
[18] = test system: HT29 colon
[19] = test system: IGROV1 ovarian
[20] = test system: K-562 leukemia
[21] = test system: KM12 colon
[22] = test system: LOX IMVI melanoma
[23] = test system: M14 melanoma
[24] = test system: MALME-3M melanoma
[25] = test system: MCF7 breast
[26] = test system: MDA-MB-231 breast
[27] = test system: MDA-MB-435
[28] = test system: MDA-N
[29] = test system: MOLT-4 leukemia
[30] = test system: NCI-H226 lung
[31] = test system: NCI-H23 lung
[32] = test system: NCI-H522 lung
[33] = test system: NCI/ADR-RES ovarian
[34] = test system: OVCAR-3 ovarian
[35] = test system: OVCAR-4 ovarian
[36] = test system: OVCAR-5 ovarian
[37] = test system: OVCAR-8 ovarian
[38] = test system: PC-3 prostate
[39] = test system: RPMI-8226 leukemia
[40] = test system: RXF 393 renal
[41] = test system: SF-268 CNS
[42] = test system: SF-295 CNS
[43] = test system: SK-MEL-2 melanoma
[44] = test system: SK-MEL-28 melanoma
[45] = test system: SK-MEL-5 melanoma
[46] = test system: SK-OV-3 ovarian
[47] = test system: SN12C renal
[48] = test system: SNB-75 CNS
[49] = test system: SR leukemia
[50] = test system: SW-620 colon
[51] = test system: TK-10 renal
[52] = test system: U251 CNS
[53] = test system: UACC-257 melanoma
[54] = test system: UACC-62 melanoma
[55] = test system: UO-31 renal
[56] = test system: SF-539 CNS
[57] = test system: SNB-19 CNS
[58] = test system: T-47D breast
[59] = test system: NCI-H460 lung

SMILES: CC[C@H](O)[C@H](C)C=C1SCCCS1
- TGI [1]: > 100 µM
- TGI [2]: > 100 µM
- TGI [3]: > 100 µM
- TGI [4]: > 100 µM
- TGI [5]: > 100 µM
- TGI [6]: > 100 µM
- TGI [7]: > 100 µM
- TGI [8]: > 100 µM
- TGI [9]: > 100 µM
- TGI [10]: > 100 µM
- TGI [11]: > 100 µM
- TGI [12]: > 100 µM
- TGI [13]: > 100 µM
- TGI [14]: 89.7 µM
- TGI [15]: > 100 µM
- TGI [16]: > 100 µM
- TGI [17]: > 100 µM
- TGI [18]: > 100 µM
- TGI [19]: > 100 µM
- TGI [20]: > 100 µM
- TGI [21]: > 100 µM
- TGI [22]: > 100 µM
- TGI [23]: > 100 µM
- TGI [24]: > 100 µM
- TGI [25]: > 100 µM
- TGI [26]: > 100 µM
- TGI [27]: > 100 µM
- TGI [28]: > 100 µM
- TGI [29]: > 100 µM
- TGI [30]: > 100 µM
- TGI [31]: > 100 µM
- TGI [32]: > 100 µM
- TGI [33]: > 100 µM
- TGI [34]: > 100 µM
- TGI [35]: > 100 µM
- TGI [36]: > 100 µM
- TGI [37]: > 100 µM
- TGI [38]: > 100 µM
- TGI [39]: > 100 µM
- TGI [40]: > 100 µM
- TGI [41]: > 100 µM
- TGI [42]: > 100 µM
- TGI [43]: > 100 µM
- TGI [44]: > 100 µM
- TGI [45]: > 100 µM
- TGI [46]: > 100 µM
- TGI [47]: > 100 µM
- TGI [48]: > 100 µM
- TGI [49]: > 100 µM
- TGI [50]: > 100 µM
- TGI [51]: > 100 µM
- TGI [52]: > 100 µM
- TGI [53]: > 100 µM
- TGI [54]: > 100 µM
- TGI [55]: > 100 µM

SMILES: C1CCC2(CC1)O[C@@H]1[C@@H](O2)[C@@H](O[C@H]2O[C@@H]3COC4(CCCCC4)O[C@H]3[C@@H]3OC4(CCCCC4)O[C@@H]23)O[C@@H]2COC3(CCCCC3)O[C@@H]12
- TGI [1]: > 100 µM
- TGI [2]: > 100 µM
- TGI [3]: > 100 µM
- TGI [4]: > 100 µM
- TGI [5]: > 100 µM
- TGI [6]: > 100 µM
- TGI [7]: > 100 µM
- TGI [8]: > 100 µM
- TGI [9]: > 100 µM
- TGI [10]: > 100 µM
- TGI [12]: > 100 µM
- TGI [14]: > 100 µM
- TGI [15]: > 100 µM
- TGI [16]: > 100 µM
- TGI [17]: > 100 µM
- TGI [18]: > 100 µM
- TGI [19]: > 100 µM
- TGI [20]: > 100 µM
- TGI [21]: > 100 µM
- TGI [22]: > 100 µM
- TGI [23]: > 100 µM
- TGI [24]: > 100 µM
- TGI [25]: > 100 µM
- TGI [26]: > 100 µM
- TGI [27]: > 100 µM
- TGI [28]: > 100 µM
- TGI [29]: > 100 µM
- TGI [31]: > 100 µM
- TGI [32]: > 100 µM
- TGI [33]: > 100 µM
- TGI [34]: > 100 µM
- TGI [35]: > 100 µM
- TGI [36]: > 100 µM
- TGI [37]: > 100 µM
- TGI [38]: > 100 µM
- TGI [39]: > 100 µM
- TGI [40]: > 100 µM
- TGI [41]: > 100 µM
- TGI [42]: > 100 µM
- TGI [56]: > 100 µM
- TGI [43]: > 100 µM
- TGI [44]: > 100 µM
- TGI [45]: > 100 µM
- TGI [46]: > 100 µM
- TGI [47]: > 100 µM
- TGI [57]: > 100 µM
- TGI [48]: > 100 µM
- TGI [50]: > 100 µM
- TGI [58]: > 100 µM
- TGI [51]: > 100 µM
- TGI [52]: > 100 µM
- TGI [53]: > 100 µM
- TGI [54]: > 100 µM
- TGI [55]: > 100 µM

SMILES: O=C(c1ccco1)N1CCCN(C(=O)c2ccco2)C1=S
- TGI [1]: > 100 µM
- TGI [2]: > 100 µM
- TGI [4]: > 100 µM
- TGI [5]: > 100 µM
- TGI [6]: > 100 µM
- TGI [7]: > 100 µM
- TGI [8]: > 100 µM
- TGI [9]: > 100 µM
- TGI [10]: > 100 µM
- TGI [12]: > 100 µM
- TGI [13]: > 100 µM
- TGI [14]: > 100 µM
- TGI [15]: > 100 µM
- TGI [17]: > 100 µM
- TGI [18]: > 100 µM
- TGI [19]: > 100 µM
- TGI [20]: > 100 µM
- TGI [21]: > 100 µM
- TGI [22]: > 100 µM
- TGI [23]: > 100 µM
- TGI [24]: > 100 µM
- TGI [25]: > 100 µM
- TGI [26]: > 100 µM
- TGI [27]: > 100 µM
- TGI [28]: > 100 µM
- TGI [29]: > 100 µM
- TGI [30]: > 100 µM
- TGI [31]: > 100 µM
- TGI [59]: > 100 µM
- TGI [33]: > 100 µM
- TGI [34]: > 100 µM
- TGI [36]: > 100 µM
- TGI [37]: > 100 µM
- TGI [38]: > 100 µM
- TGI [39]: > 100 µM
- TGI [40]: > 100 µM
- TGI [41]: > 100 µM
- TGI [56]: > 100 µM
- TGI [43]: > 100 µM
- TGI [44]: > 100 µM
- TGI [45]: > 100 µM
- TGI [46]: > 100 µM
- TGI [47]: > 100 µM
- TGI [57]: > 100 µM
- TGI [50]: > 100 µM
- TGI [58]: 93.3 µM
- TGI [51]: > 100 µM
- TGI [52]: > 100 µM
- TGI [53]: > 100 µM
- TGI [54]: > 100 µM
- TGI [55]: > 100 µM

SMILES: CC(=O)N=C1N(/C=C2\C(=O)Oc3ccccc3C2=O)C(=O)/C(=C/c2ccc(OC(C)=O)cc2)N1C
- TGI [1]: > 100 µM
- TGI [2]: > 100 µM
- TGI [3]: > 100 µM
- TGI [4]: > 100 µM
- TGI [6]: > 100 µM
- TGI [7]: > 100 µM
- TGI [8]: > 100 µM
- TGI [9]: > 100 µM
- TGI [10]: > 100 µM
- TGI [11]: > 100 µM
- TGI [12]: > 100 µM
- TGI [13]: > 100 µM
- TGI [14]: > 100 µM
- TGI [15]: > 100 µM
- TGI [17]: > 100 µM
- TGI [18]: > 100 µM
- TGI [19]: > 100 µM
- TGI [20]: > 100 µM
- TGI [21]: > 100 µM
- TGI [22]: > 100 µM
- TGI [23]: > 100 µM
- TGI [24]: > 100 µM
- TGI [25]: > 100 µM
- TGI [26]: > 100 µM
- TGI [27]: > 100 µM
- TGI [28]: > 100 µM
- TGI [29]: > 100 µM
- TGI [30]: > 100 µM
- TGI [31]: > 100 µM
- TGI [59]: > 100 µM
- TGI [32]: > 100 µM
- TGI [33]: > 100 µM
- TGI [34]: > 100 µM
- TGI [35]: > 100 µM
- TGI [36]: > 100 µM
- TGI [37]: > 100 µM
- TGI [38]: > 100 µM
- TGI [39]: > 100 µM
- TGI [40]: > 100 µM
- TGI [41]: > 100 µM
- TGI [42]: > 100 µM
- TGI [56]: > 100 µM
- TGI [43]: > 100 µM
- TGI [44]: > 100 µM
- TGI [45]: > 100 µM
- TGI [46]: > 100 µM
- TGI [47]: > 100 µM
- TGI [48]: > 100 µM
- TGI [49]: > 100 µM
- TGI [50]: > 100 µM
- TGI [58]: > 100 µM
- TGI [52]: > 100 µM
- TGI [53]: > 100 µM
- TGI [54]: > 100 µM

Reference: PubChem BioAssay (NCI)
